Measurements taken from patent US20130011538A1, “CRYSTAL OF MULTIVALENT METAL SALT OF MONATIN” (Ajinomoto Co., Inc., priority 2011, published 2013).
Where a name gives a salt, the structure may show the parent alone.

Experiments:
[1] = Transmittance of monatin solution after storage (products containing sucrose); format: physicochemical; details: storage at 44° C. and 78%
Experimental: (§1) <Name of device> UV-visible spectrophotometer, Cary 50, manufactured by Varian Medical Systems, Inc. <Measurement wavelength>430 nm
(§2) <Sample> 1 g of sweetener composition is totally dissolved in 50 mL of water.
(§3) 1 g of each sweetener composition shown in the compositional table 2 was filled in a paper packaging material, and the packaging material was sealed with a heat seal. The composition was stored for a given period of time in a constant temperature and constant humidity device at 44° C. and 78%. Then, the total amount of the stored sample was dissolved in 50 mL of water, and the residual ratio of each monatin salt was calculated from the data obtained by HPLC analysis of the solution.

[2] = Transmittance of monatin solution after storage (products containing glucose); format: physicochemical; details: storage at 44° C. and 78%
Experimental: as §1, §2
as §3, with “1” for “2”

[3] = Sweetness intensity evaluated by panelists in comparison with an aqueous solution of 5% sucrose; details: in comparison with the sweetness intensity of an aqueous solution of 5% sucrose; average of 7 panelists
Experimental: <Moisture content> 10.8 wt % (corresponding to the following equation: monatin:water=2:4) <Magnesium content> 3.6 wt % (corresponding to the following equation: monatin:magnesium=2:1)< <Characteristic X-ray diffraction peaks (2θ±0.2°, CuKα)> 8.9°, 11.2°, 15.0°, 17.8°, and 22.5° (FIG. 3)< <Crystalline form> The crystalline form in the deposited ML was a relatively small flake-like form (FIG. 4)< <Sweetness intensity> 2700 times higher (in comparison with the sweetness intensity of an aqueous solution of 5% sucrose, average of the sweetness intensities evaluated by 7 panelists)

| Change in color after storage [1] | Transmittance of the solution after storage (in words) [1] | Change in color after storage [2] | Transmittance of the solution after storage (in words) [2] | Structure (SMILES) | Sweetness intensity [3] |
| --- | --- | --- | --- | --- | --- |
| colored yellow | decreased | colored yellow | decreased | NC(CC(O)(Cc1c[nH]c2ccccc12)C(=O)O)C(=O)O [potassium salt, (2R,4R)-monatin monopotassium salt] | – |
| – | – | – | – | NC(CC(O)(Cc1c[nH]c2ccccc12)C(=O)[O-])C(=O)O.NC(CC(O)(Cc1c[nH]c2ccccc12)C(=O)[O-])C(=O)O.O.O.O.O.[Mg+2] [Example 2, ((2R,4R)-monatin)2 magnesium salt tetrahydrate] | 2700 times |
